Laboratory results reported in article PMC12022909, “A Multicomponent Reaction-Based Platform Opens New Avenues in Aryl Hydrocarbon Receptor Modulation” (ACS Central Science, 2025).

Tested on: IL-19, CXCL1, and CCL26 gene expression
Assay: IL-13 triggered proinflammatory gene expression in HaCaT keratinocytes
Format: cell-based, human
Conditions: IL-13 10 ng/mL
Source text: As AhR activation is beneficial for pathologies including chronic inflammatory skin diseases,[74] we assessed the potential anti-inflammatory role of our ligands by cotreating HaCaT keratinocytes with the proinflammatory cytokine IL-13 and a selection of 6-ICZs (Figure 7a).
Figure 7 Anti-inflammatory effect of the 6-ICZs. (a) Structure of the tested compounds and the control tapinarof (T). (b) IL-13 triggered gene expression of proinflammatory IL-19, CXCL1, and CCL26 expressed as fold of 0.1% DMSO control. HaCaT keratinocytes were treated with IL-13 (10 ng/mL) for 24 h, then either untreated (−) or treated with positive control T (1 μM) or 6-ICZs (1 μM). n = 3–4. For statistical analysis an unpaired t-test was performed and data are shown as mean ± SEM (*, p ≤ 0.05 compared to IL-13 (10 ng/mL)).
Cell culture and treatment
Human HaCaT and HaCaT-AhR-deficient keratinocytes were cultured in DMEM low glucose (1 g/l) medium (PAN Biotech, Aidenbach, Germany) supplemented with 10% (v/v) fetal bovine serum (PAN Biotech) and 1% (v/v) antibiotics/antimycotics (PAN Biotech). […]
Quantitative real-time PCR
The isolation of total RNA, reverse transcription, and quantitative real-time PCR was conducted as described previously.[26] […]
AhR-dependent reporter gene activity was determined in human HepG2 cells stably transfected with an XRE -harboring luciferase plasmid (XRE-HepG2 cells). […]

In the case of `CCOc1c2[nH]c3ccccc3c2cc2[nH]c3ccccc3c12` [compound 8, 6-ethoxy-ICZ], the “anti-inflammatory potency compared with positive control tapinarof” value (1 μM) was “slightly more potent than the positive control tapinarof” and the “IL-13-triggered induction of IL-19, CXCL1, and CCL26 gene expression” value (24 h, compound 1 μM) was “significantly reduced”.
